Holding throughout (format): functional
The subject of assay [1] is Mycobacterium tuberculosis. Briefly: Antimycobacterial activity against clinical isolates of multidrug resistant/extensively drug resistant Mycobacterium tuberculosis Praha 1 after 14 days by micromethod. The note with it: Praha 1, 336 h.
The test system of assay [2] is Mycobacterium tuberculosis. Briefly: Antimycobacterial activity against clinical isolates of multidrug resistant/extensively drug resistant Mycobacterium tuberculosis Praha 1 after 21 days by micromethod. As to conditions: Praha 1, 504 h.
Assay [3] concerns Mycobacterium tuberculosis. Briefly: Antimycobacterial activity against clinical isolates of multidrug resistant/extensively drug resistant Mycobacterium tuberculosis Praha 4 after 14 days by micromethod. As to conditions: Praha 4, 336 h.
Assay [4] has as its system Mycobacterium tuberculosis. In words: Antimycobacterial activity against clinical isolates of multidrug resistant/extensively drug resistant Mycobacterium tuberculosis Praha 4 after 21 days by micromethod. The note with it: Praha 4, 504 h.
The test system of assay [5] is Mycobacterium tuberculosis. Briefly: Antimycobacterial activity against clinical isolates of multidrug resistant/extensively drug resistant Mycobacterium tuberculosis Praha 131 after 14 days by micromethod. The note with it: Praha 131, 336 h.
The test system of assay [6] is Mycobacterium tuberculosis. In words: Antimycobacterial activity against clinical isolates of multidrug resistant/extensively drug resistant Mycobacterium tuberculosis Praha 131 after 21 days by micromethod. As to conditions: Praha 131, 504 h.
Assay [7] has as its system Mycobacterium tuberculosis. Briefly: Antimycobacterial activity against clinical isolates of multidrug resistant/extensively drug resistant Mycobacterium tuberculosis 9449/2007 after 14 days by micromethod. The note with it: 9449/2007, 336 h.
The subject of assay [8] is Mycobacterium tuberculosis. Briefly: Antimycobacterial activity against clinical isolates of multidrug resistant/extensively drug resistant Mycobacterium tuberculosis 9449/2007 after 21 days by micromethod. As to conditions: 9449/2007, 504 h.
The subject of assay [9] is Mycobacterium tuberculosis. In words: Antimycobacterial activity against clinical isolates of multidrug resistant/extensively drug resistant Mycobacterium tuberculosis 234/2005 after 14 days by micromethod. As to conditions: 234/2005, 336 h.
The test system of assay [10] is Mycobacterium tuberculosis. Briefly: Antimycobacterial activity against clinical isolates of multidrug resistant/extensively drug resistant Mycobacterium tuberculosis 234/2005 after 21 days by micromethod. The note with it: 234/2005, 504 h.
The test system of assay [11] is Mycobacterium tuberculosis. Briefly: Antimycobacterial activity against clinical isolates of multidrug resistant/extensively drug resistant Mycobacterium tuberculosis 7357/1998 after 14 days by micromethod. The note with it: 7357/1998, 336 h.
The subject of assay [12] is Mycobacterium tuberculosis. Briefly: Antimycobacterial activity against clinical isolates of multidrug resistant/extensively drug resistant Mycobacterium tuberculosis 7357/1998 after 21 days by micromethod. As to conditions: 7357/1998, 504 h.
The subject of assay [13] is Mycobacterium tuberculosis. In words: Antimycobacterial activity against clinical isolates of multidrug resistant/extensively drug resistant Mycobacterium tuberculosis 8666/2010 after 14 days by micromethod. As to conditions: 8666/2010, 336 h.
The test system of assay [14] is Mycobacterium tuberculosis. In words: Antimycobacterial activity against clinical isolates of multidrug resistant/extensively drug resistant Mycobacterium tuberculosis 8666/2010 after 21 days by micromethod. The note with it: 8666/2010, 504 h.

As usually defined, the MIC is the least concentration at which growth counts as inhibited.

SMILES strings stand for the structures. Converted amounts (≈) assume the structure as drawn.

`COc1cccc(-n2nnnc2SCn2nnc(-c3cc([N+](=O)[O-])cc([N+](=O)[O-])c3)n2)c1`: the MIC in [1], in assay [2], in assay [3], in assay [4], in assay [5] and in assay [6] was 0.03 µM (≈ 0.0137 µg/mL) throughout. For the same molecule, the MIC in assay [7] is 0.03 µM (≈ 0.0137 µg/mL); in [8], 0.06 µM (≈ 0.0274 µg/mL); in [9] it was 0.03 µM (≈ 0.0137 µg/mL); in [10], 0.03 µM (≈ 0.0137 µg/mL); in [11], 0.03 µM (≈ 0.0137 µg/mL); in [12], 0.03 µM (≈ 0.0137 µg/mL).
`COc1ccc(Cn2nnc(-c3cc([N+](=O)[O-])cc([N+](=O)[O-])c3)n2)cc1`: the MIC in [1], in assay [2], in [3], in assay [4], in assay [5] and in assay [6] was 0.03 µM (≈ 0.0107 µg/mL) in each case. Further, the minimal inhibitory concentration (MIC) in [7] was determined as 0.03 µM (≈ 0.0107 µg/mL); in [8], 0.03 µM (≈ 0.0107 µg/mL); in assay [9], 0.03 µM (≈ 0.0107 µg/mL); in assay [10], 0.06 µM (≈ 0.0214 µg/mL); in [11] it was 0.03 µM (≈ 0.0107 µg/mL); in assay [12], 0.03 µM (≈ 0.0107 µg/mL). Also, the MIC in assay [13] and in [14] was 0.03 µM (≈ 0.0107 µg/mL) in each case.
For `O=[N+]([O-])c1cc(-c2nnn(Cc3ccccc3)n2)cc([N+](=O)[O-])c1`, the minimum inhibitory concentration (MIC) in [1], in assay [2], in assay [3], in assay [4], in assay [5] and in [6] was 1 µM (≈ 0.326 µg/mL) throughout. The MIC in [7], in assay [8], in assay [9], in assay [10], in assay [11] and in assay [12] was 1 µM (≈ 0.326 µg/mL) each time.
For `O=[N+]([O-])c1cc(-c2nnn(CSc3nnnn3-c3ccc(Cl)cc3)n2)cc([N+](=O)[O-])c1`, the MIC in assay [1] came out at 0.03 µM (≈ 0.0138 µg/mL); in assay [2], 0.06 µM (≈ 0.0276 µg/mL); in [3], 0.03 µM (≈ 0.0138 µg/mL); in assay [4], 0.03 µM (≈ 0.0138 µg/mL); in assay [5], 0.03 µM (≈ 0.0138 µg/mL); in [6], 0.03 µM (≈ 0.0138 µg/mL). Moreover, the MIC in [7] is 0.03 µM (≈ 0.0138 µg/mL); in assay [8], 0.03 µM (≈ 0.0138 µg/mL); in assay [9], 0.03 µM (≈ 0.0138 µg/mL); in [10], 0.06 µM (≈ 0.0276 µg/mL); in assay [11], 0.03 µM (≈ 0.0138 µg/mL); in [12] it was 0.03 µM (≈ 0.0138 µg/mL).
Take `O=[N+]([O-])c1cc(-c2nnn(CSc3nnnn3-c3ccc(Br)cc3)n2)cc([N+](=O)[O-])c1`: the minimal inhibitory concentration (MIC) in [1], in [2], in assay [3], in [4], in [5] and in assay [6] was 0.03 µM (≈ 0.0152 µg/mL) in each case. Besides, the minimum inhibitory concentration (MIC) in [7], in assay [8], in assay [9], in assay [10], in assay [11] and in assay [12] was 0.03 µM (≈ 0.0152 µg/mL) throughout.
Consider `O=[N+]([O-])c1cc(-c2nnn(CCCSc3nnnn3-c3ccc(Br)cc3)n2)cc([N+](=O)[O-])c1`, for which the minimum inhibitory concentration (MIC) in [1], in assay [2], in assay [3], in [4], in assay [5] and in assay [6] was 0.25 µM (≈ 0.133 µg/mL) throughout. Moreover, the minimal inhibitory concentration (MIC) in assay [7], in [8], in assay [9], in [10], in assay [11] and in assay [12] was 0.25 µM (≈ 0.133 µg/mL) in each case.
As for `O=[N+]([O-])c1cc(-c2nnn(CSc3nnnn3-c3ccc(Cl)c(Cl)c3)n2)cc([N+](=O)[O-])c1`, the minimum inhibitory concentration (MIC) in [1], in [2], in [3], in assay [4], in assay [5] and in assay [6] was 0.03 µM (≈ 0.0149 µg/mL) each time. The MIC in [7], in [8], in assay [9], in assay [10], in [11] and in assay [12] was 0.03 µM (≈ 0.0149 µg/mL) in each case.
For `O=[N+]([O-])c1cc(-c2nnn(Cc3cccc(F)c3)n2)cc([N+](=O)[O-])c1`, the minimal inhibitory concentration (MIC) in assay [1], in [2], in assay [3], in [4], in assay [5] and in assay [6] was 1 µM (≈ 0.344 µg/mL) throughout. Further, the MIC in assay [7], in [8], in assay [9], in assay [10], in assay [11] and in assay [12] was 1 µM (≈ 0.344 µg/mL) each time. Moreover, the minimal inhibitory concentration (MIC) in [13] and in assay [14] was 1 µM (≈ 0.344 µg/mL) in each case.
As for `O=[N+]([O-])c1cc(-c2nnn(CCCCSc3nnnn3-c3ccc(Br)cc3)n2)cc([N+](=O)[O-])c1`, the MIC in [1], in assay [2], in assay [3], in assay [4], in [5] and in assay [6] was 0.25 µM (≈ 0.137 µg/mL) throughout. Besides, the MIC in assay [7] turned out to be 0.25 µM (≈ 0.137 µg/mL); in [8], 0.5 µM (≈ 0.274 µg/mL); in assay [9], 0.25 µM (≈ 0.137 µg/mL); in assay [10] it was 0.25 µM (≈ 0.137 µg/mL); in assay [11] it was 0.25 µM (≈ 0.137 µg/mL); in [12], 0.25 µM (≈ 0.137 µg/mL).
`O=[N+]([O-])c1cc(-c2nnn(Cc3ccc(F)cc3)n2)cc([N+](=O)[O-])c1`: the minimal inhibitory concentration (MIC) in assay [1] is 1 µM (≈ 0.344 µg/mL); in [2], 1 µM (≈ 0.344 µg/mL); in assay [3], 0.5 µM (≈ 0.172 µg/mL); in assay [4], 1 µM (≈ 0.344 µg/mL); in assay [5], 0.5 µM (≈ 0.172 µg/mL); in assay [6], 1 µM (≈ 0.344 µg/mL). Besides, the MIC was determined as 0.25 µM (≈ 0.0861 µg/mL) in assay [7]; 0.5 µM (≈ 0.172 µg/mL) in assay [8]; 0.5 µM (≈ 0.172 µg/mL) in [9]; 1 µM (≈ 0.344 µg/mL) in assay [10]; 0.5 µM (≈ 0.172 µg/mL) in assay [11]; 0.5 µM (≈ 0.172 µg/mL) in assay [12]. Moreover, the MIC in assay [13] and in assay [14] was 0.5 µM (≈ 0.172 µg/mL) in each case.
For the molecule `O=[N+]([O-])c1cc(-c2nnn(Cc3cccc(Br)c3)n2)cc([N+](=O)[O-])c1`, the minimal inhibitory concentration (MIC) was 0.5 µM (≈ 0.203 µg/mL) in assay [1]; 0.5 µM (≈ 0.203 µg/mL) in assay [2]; 0.5 µM (≈ 0.203 µg/mL) in assay [3]; 1 µM (≈ 0.405 µg/mL) in assay [4]; 0.5 µM (≈ 0.203 µg/mL) in [5]; 1 µM (≈ 0.405 µg/mL) in assay [6]. In addition, the minimal inhibitory concentration (MIC) was found to be 0.25 µM (≈ 0.101 µg/mL) in [7]; 0.5 µM (≈ 0.203 µg/mL) in assay [8]; 0.25 µM (≈ 0.101 µg/mL) in assay [9]; 0.5 µM (≈ 0.203 µg/mL) in assay [10]; 0.5 µM (≈ 0.203 µg/mL) in [11]; 0.5 µM (≈ 0.203 µg/mL) in assay [12]. Besides, the figures for the MIC in [13] and in assay [14] were 0.25 µM (≈ 0.101 µg/mL) and 0.5 µM (≈ 0.203 µg/mL), respectively.
Take `Cc1ccc(Cn2nnc(-c3cc([N+](=O)[O-])cc([N+](=O)[O-])c3)n2)cc1`: the minimal inhibitory concentration (MIC) in assay [1] was found to be 0.12 µM (≈ 0.0408 µg/mL); in [2], 0.25 µM (≈ 0.0851 µg/mL); in [3] it was 0.12 µM (≈ 0.0408 µg/mL); in [4], 0.12 µM (≈ 0.0408 µg/mL); in [5], 0.12 µM (≈ 0.0408 µg/mL); in [6], 0.12 µM (≈ 0.0408 µg/mL). Moreover, the minimal inhibitory concentration (MIC) in assay [7], in assay [8], in assay [9], in [10], in assay [11] and in assay [12] was 0.12 µM (≈ 0.0408 µg/mL) each time. In addition, the minimum inhibitory concentration (MIC) in [13] and in assay [14] was 0.12 µM (≈ 0.0408 µg/mL) throughout.

Values taken from ChEMBL document CHEMBL4011590, “Structure-activity relationship studies on 3,5-dinitrophenyl tetrazoles as antitubercular agents” (Eur J Med Chem, 2017).
